Consider 4 substances from publication PMC7810238, “Design, synthesis, and evaluation of Bothrops venom serine protease peptidic inhibitors” (The Journal of Venomous Animals and Toxins Including …, 2021).

Where no end group is shown, it is not given here. [ ]: non-standard residue; d: D form.

One test concerns Bothrops spp venom SVSPs. The note with it: ref [9]; cited from earlier work. The procedure: In this context, the use of selective SVSPs inhibitory compounds, in association with available commercial antivenoms, could be a starting point for studies aiming snakebite treatment efficacy improvement. Therefore, in the present study, small peptides were evaluated as potential SVSPs inhibitors.

A further test has as its system batroxobin. Briefly: batroxobin thrombin-like activity, chromogenic substrate S-2238. The test is classed as biochemical, B. moojeni. The following applies: for inhibition of batroxobin activity: peptide 60 µg/mL, absorbance 405 nm. As for the experimental part: (§1) Batroxobin and human thrombin activities were evaluated using the chromogenic substrate S-2238 (Chromogenix). Briefly, batroxobin (0.8 U) or human thrombin (0.8U) was pre-incubated at 37°C for 10 minutes with different concentrations (0 to 1 mg/mL for batroxobin, and 60 µg/mL, for human thrombin), of each peptide in Tris/HCl buffer […], containing CaCl2 0.02% (v/v), pH 8.0. Enzymatic reaction was initiated by addition of substrate (200µM), followed by incubation at 37°C, for 20 minutes. When serine protease activity from BjV was evaluated using the chromogenic substrate S2238, 5 µg of BjV and 60 µg/mL of each peptide were employed.
(§2) For all assays using chromogenic substrates, hydrolysis was quantified by evaluation of absorbance at 405 nm, in a spectrophotometer SpectraMax® Paradigm® Multi-Mode reader from Molecular Devices (Sunnyvale, CA).
(§3) SVSPs activity from BjV was also evaluated using the fluorogenic substrate Abz-Ser. Briefly, BjV (5 µg/100µL) was pre-incubated at 37 °C for 10 minutes with 100 µg/mL of each peptide, in PBS pH 7.4 containing 20mM NaCl. Enzymatic reaction was initiated by addition of substrate (10 µM), followed by incubation at 37°C, for 20 minutes. The substrate hydrolysis was monitored following fluorescence emitted at 420 nm, under excitation at 320 nm in a spectrofluorimeter (Victor 3^TM Perkin- Elmer, Boston, MA, USA), as described by Araujo et al. (2000). All the experiments were made in triplicate.
Figure 2. Evaluation of the effects of synthetic peptides on batroxobin and on human serine proteases activities. (A) Batroxobin activity was evaluated after 20 min, at 37 °C, using the chromogenic substrate S-2238 and the indicated concentrations of synthetic peptides. (B, C, D) Commercial hSPs had their activity evaluated after 20 min, at 37 °C, using their specific chromogenic substrates and batroxobin inhibitory peptides at 60 µg/mL.

For another test, the system named is human trypsin. The test is described as follows: proteolytic activity of human trypsin, chromogenic substrate BAPNA. The test is classed as biochemical. The note with it: peptide 60 µg/mL; trypsin 126 nM; pre-incubated 10 min 37°C, Tris/HCl 50 mM, CaCl2 0.02%, pH 8.0; BAPNA 1.25 mM, 20 min 37°C; 405 nm; triplicate. As for the experimental part: Proteolytic activity of human trypsin was evaluated using the chromogenic substrate BAPNA (Sigma). Briefly, trypsin (126 nM) was pre-incubated for 10 minutes at 37°C with 60 µg/mL of each peptide in Tris/HCl buffer 50 mM containing CaCl2 0.02% (v/v), pH 8.0. Enzymatic reaction was initiated by addition of substrate (1.25 mM), followed by incubation at 37°C, for 20 minutes.
as §2
(§4) SVSPs activity from BjV was also evaluated using the fluorogenic substrate Abz-Ser. Briefly, BjV (5 µg/100µL) was pre-incubated at 37 °C for 10 minutes with 100 µg/mL of each peptide, in PBS pH 7.4 containing 20mM NaCl. […] The substrate hydrolysis was monitored following fluorescence emitted at 420 nm, under excitation at 320 nm in a spectrofluorimeter (Victor 3^TM Perkin- Elmer, Boston, MA, USA), as described by Araujo et al. (2000). […]
(§5) Figure 2. […] (A) Batroxobin activity was evaluated after 20 min, at 37 °C, using the chromogenic substrate S-2238 and the indicated concentrations of synthetic peptides. (B, C, D) Commercial hSPs had their activity evaluated after 20 min, at 37 °C, using their specific chromogenic substrates and batroxobin inhibitory peptides at 60 µg/mL.

The test system of another test is human thrombin. Briefly: human thrombin activity, chromogenic substrate S-2238. The test is classed as biochemical. The note with it: peptide 60 µg/mL; human thrombin 0.8U; pre-incubated 10 min 37°C, Tris/HCl 0.15mM, CaCl2 0.02%, pH 8.0; S-2238 200 µM, 20 min 37°C; 405 nm; triplicate. The procedure:
as §1, §2
(§6) SVSPs activity from BjV was also evaluated using the fluorogenic substrate Abz-Ser. Briefly, BjV (5 µg/100µL) was pre-incubated at 37 °C for 10 minutes with 100 µg/mL of each peptide, in PBS pH 7.4 containing 20mM NaCl. Enzymatic reaction was initiated by addition of substrate (10 µM), followed by incubation at 37°C, for 20 minutes. The substrate hydrolysis was monitored following fluorescence emitted at 420 nm, under excitation at 320 nm in a spectrofluorimeter (Victor 3^TM Perkin- Elmer, Boston, MA, USA), as described by Araujo et al. (2000). […]

Test [1] deals with Bothrops jararaca venom (BjV) serine proteases. The test is described as follows: BjV serine protease (thrombin-like) activity, chromogenic substrate S2238. The note with it: BjV 5 µg, peptide 60 µg/mL or 100 µg/mL, S2238 200 µM or 2 mM, 20 min 37°C, 405 nm, triplicate. The test is classed as biochemical. The procedure:
as §1, §2, §6

Test [2] deals with Bothrops jararaca venom (BjV) SVSPs. Briefly: BjV SVSPs activity, fluorogenic substrate Abz-Ser. The note with it: peptide 100 µg/mL; for inhibition of BjV serine protease activity on Abz-Ser: substrate Abz-Ser 10 µM, BjV 5 µg/100µL, pre-incubated 10 min 37°C, PBS pH 7.4, 20mM NaCl, 20 min 37°C, fluorescence 420 nm (ex 320 nm), triplicate. The test is classed as biochemical. As for the experimental part:
as §3
Figure 3. Evaluation of synthetic peptides on Bothrops venom serine-proteases. BjV was pre-incubated with 100 µg/mL of pepB or pepC and a serine proteases activity was evaluated after 20 min, at 37 °C, with (A) 2 mM of substrate S2238 or (B) 10 µM of substrate Abz-Ser.

The test system of another test is human factor Xa. Briefly: proteolytic activity of human factor Xa, chromogenic substrate CS-11(22). The test is classed as biochemical. The note with it: peptide 60 µg/mL; factor Xa 20nM; pre-incubated 10 min 37°C, Tris/HCl 20 mM, NaCl 150 mM, pH 7.4; CS-11(22) 100µM, 20 min 37°C; 405 nm; triplicate. As for the experimental part: Proteolytic activity of human factor Xa was evaluated using the chromogenic substrate CS-11(22) (Hyphen). Briefly, factor Xa (20nM) was pre-incubated for 10 minutes at 37°C with 60 µg/mL of each peptide in Tris/HCl buffer 20 mM, pH 7.4 containing NaCl 150 mM. Enzymatic reaction was initiated by the addition of substrate (100µM), followed by incubation at 37°C, for 20 minutes.
as §2, §4, §5

[3] abbreviates: batroxobin 0.8 U, pre-incubated 10 min 37°C, Tris/HCl 0.15mM, CaCl2 0.02%, pH 8.0, S-2238 200 µM, 20 min 37°C, triplicate.

Regarding Abz-RPPGFSPFRQ-EDDnp [Abz-Ser], the “selectivity as substrate for Bothrops spp venom SVSPs” value in the test with Bothrops spp venom SVSPs is listed as “selective for Bothrops spp venom SVSPs”.
Regarding “PFYQAS [pepA, 6-mer peptide designed based on carboxyl-terminus of the substrate Abz-Ser]”, the “inhibition of batroxobin activity (in words)” value in the test on batroxobin (tested until 1 mg/mL, batroxobin 0.8 U, pre-incubated 10 min 37°C, Tris/HCl 0.15mM, CaCl2 0.02%, pH 8.0, S-2238 200 µM, 20 min 37°C, triplicate) is reported as “did not inhibit batroxobin activity”.
As for “PFYQSS [pepC, 6-mer peptide related to pepA, a Ser instead of Ala]”, the “effect on catalytic activity of human trypsin” value with human trypsin is on record as “none of the peptides inhibited human serine proteases”. In addition, the “inhibition of batroxobin activity” value with batroxobin (setting [3]) was 18 ± 4%. Further, in the test with human thrombin, the “effect on catalytic activity of human thrombin” value is “none of the peptides inhibited human serine proteases”. Moreover, the “inhibition of BjV thrombin-like activity” value in test [1] came out at 18 ± 2%. Besides, the “inhibition of BjV serine protease activity on Abz-Ser” value in test [2] is listed as 19.3 ± 0.7%. Also, in the test on human factor Xa, the “effect on catalytic activity of human factor Xa” value was “none of the peptides inhibited human serine proteases”.
Take “PF[dR]QAS [pepB, 6-mer peptide related to pepA, D-Arg replacing Tyr]”: the “effect on catalytic activity of human trypsin” value in the test on human trypsin is given as “none of the peptides inhibited human serine proteases”. For the same substance, the “efficiency on batroxobin relative to pepC” value with batroxobin (pepB compared with pepC) is “twice more efficient than pepC”. Also, the “inhibition of batroxobin activity” value with batroxobin (setting [3]) is listed as 36 ± 7%. For the same substance, the “effect on catalytic activity of human thrombin” value with human thrombin is “none of the peptides inhibited human serine proteases”. Further, the “inhibition of BjV thrombin-like activity” value in test [1] was determined as 15 ± 3%. Besides, the “inhibitory effect of pepB relative to pepC on BjV with Abz-Ser” value in test [2] (pepB compared with pepC) turned out to be 4 times less efficient. Besides, in test [2], the “inhibition of BjV serine protease activity on Abz-Ser” value came to 5.4 ± 0.7%. In the test with human factor Xa, the “effect on catalytic activity of human factor Xa” value is listed as “none of the peptides inhibited human serine proteases”.
